Source: patent US20260116921A1, “PEPTIDE INHIBITORS OF INTERLEUKIN-23 RECEPTOR AND THEIR USE TO TREAT INFLAMMATORY DISEASES” (priority 2018, published 2026)
Read-outs that look alike come from different tables or passages of the source.

B1: SEQ ID NO: 11 (peptide)
peptide: XNTXQXXXXKNN
modifications: Ac-[Pen]-NT-[W(5-Br)]-Gln-[Pen]-[Phe[4-(2-aminoethoxy)]-[2-Nal]-[α-MeLeu]-[Lys(Ac)]-NN-NH2; Pen-Pen disulfide
B2: SEQ ID NO: 10 (peptide)
peptide: XNTXQXXXXKNN
modifications: Ac-[Pen]-NT-[W(5-OH)]-Gln-[Pen]-[Phe[4-(2-aminoethoxy)]-[2-Nal]-[α-MeLeu]-[Lys(Ac)]-NN-NH2; Pen-Pen disulfide
B3: SEQ ID NO: 9 (peptide)
peptide: XNTXQXXXXKNN
modifications: Ac-[Pen]-NT-[W(5-OMe)]-Gln-[Pen]-[Phe[4-(2-aminoethoxy)]-[2-Nal]-[α-MeLeu]-[Lys(Ac)]-NN-NH2; Pen-Pen disulfide

Columns and labels:
IL-23R [1] = molecular target: T1, IL-23R (Homo sapiens, UniProt Q5VWK5); assay: DB cells IL23R pSTAT3 cell assay (pStat3 HTRF); type: cell-based
T1 sequence (Q5VWK5 24-629): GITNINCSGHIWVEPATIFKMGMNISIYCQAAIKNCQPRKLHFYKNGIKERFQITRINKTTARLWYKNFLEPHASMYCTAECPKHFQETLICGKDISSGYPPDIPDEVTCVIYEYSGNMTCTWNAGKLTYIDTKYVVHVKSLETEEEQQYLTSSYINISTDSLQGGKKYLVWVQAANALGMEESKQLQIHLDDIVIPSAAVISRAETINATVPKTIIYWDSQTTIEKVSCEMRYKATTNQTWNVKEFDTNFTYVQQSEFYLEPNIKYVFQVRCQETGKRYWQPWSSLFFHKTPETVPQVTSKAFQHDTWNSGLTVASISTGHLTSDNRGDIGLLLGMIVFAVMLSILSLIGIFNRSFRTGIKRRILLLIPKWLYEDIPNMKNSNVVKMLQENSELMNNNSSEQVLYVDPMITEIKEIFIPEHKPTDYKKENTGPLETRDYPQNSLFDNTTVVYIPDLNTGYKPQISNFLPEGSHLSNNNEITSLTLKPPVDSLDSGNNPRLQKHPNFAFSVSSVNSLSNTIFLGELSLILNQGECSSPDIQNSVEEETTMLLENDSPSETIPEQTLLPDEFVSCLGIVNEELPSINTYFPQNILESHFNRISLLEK
In short: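 DB cells (5×10E5/well, RPMI-1640 + 10% FBS) stimulated with 0.5 nM final IL-23 plus serially diluted test peptides for 30 min at 37 °C, 5% CO2. Phospho-STAT3 (Tyr705) in lysates measured by HTRF using a two-plate protocol.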

NK cells = assay: NK cell based assay (IL-23/IL-18-induced IFNγ, Quantikine ELISA); conditions: human primary NK cells, IL-23 at EC50 to EC75 + IL-18 10 ng/mL, IFNγ after 20 to 24 hours
In short: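 Human NK cells were negatively selected from healthy-donor peripheral blood and expanded for 7 days in FBS-supplemented RPMI 1640 with IL-2 (25 ng/mL). IFNγ in the supernatant was quantified by ELISA after 20 to 24 hours.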

[2] = Stability in simulated gastric fluid (SGF); type: in vitro ADME; conditions: pig (pepsin), simulated gastric fluid (SGF) with porcine pepsin, pH=2, 37° C., 20 μM peptide, read-out: SGF t½ (converted)
Protocol: SGF was prepared by adding 20 mg NaCl, 32 mg porcine pepsin (MP Biochemicals, catalog 02102599), and 70 μl HCl to 10 ml water (final pH=2). Aliquots of SGF (0.5 ml each) were pre-warmed at 37° C. To start the reaction, 1 μl of peptide stock solution (10 mM in DMSO) was added to 0.5 ml SGF and thoroughly mixed such that the final peptide concentration was 20 μM. The reactions were incubated at 37° C. with gentle shaking. At each time point (0, 15, 30, 60 min) 50 μl aliquots were removed and added to 200 ul acetonitrile containing 0.1% formic acid to quench the reaction. Samples are stored at 4° C. until the end of the experiment and centrifuged at 10,000 rpm for 5 minutes. Aliquots of the supernatant were removed, diluted 1:1 into distilled water containing internal standard, and analyzed by LCMS/MS. Percent remaining at each timepoint was calculated based on the peak area response ratio of test to compound to internal standard. Time 0 was set to 100%, and all later timepoints were calculated relative to time 0. Half-lives were calculated by fitting to a first-order exponential decay equation using GraphPad.

in vitro [3] = conditions: human, 20% fecal homogenate (supernatant), anaerobic, pH 6.8
in vitro [4] = conditions: cynomolgus monkey, 20% fecal homogenate (supernatant), anaerobic, pH 6.8
in vitro [5] = conditions: both, SD, rat, plasma (EDTA)
in vitro [6] = type: in vitro ADME; design: half-life: dose or concentration left out as unconfirmed; conditions: pH 6.8, 37° C., § matrix is 100 fold dilution of standard SIF concentration; for SIF t½: simulated intestinal fluid, pancreatin
Protocol: SIF was prepared by adding 6.8 g of monobasic potassium phosphate and 10.0 g of pancreatin to 1.0 L of water. After dissolution, the pH was adjusted to 6.8 using NaOH. DMSO stocks (2 mM) were first prepared for the test compounds. Aliquots of the DMSO solutions were dosed into 6 individual tubes, each containing 0.5 mL of SIF, which is pre-warmed to 37° C. The final test compound concentration was 20 M. The vials were kept in a benchtop Thermomixer® for the duration of the experiment. At each timepoint (0, 5, 10, 20, 40, 60, or 360 minutes or 24 hours), 1.0 mL of acetonitrile containing 1% formic acid was added to one vial to terminate the reaction. Samples were stored at 4° C. until the end of the experiment. After the final timepoint is sampled, the tubes were mixed and then centrifuged at 3,000 rpm for 10 minutes. Aliquots of the supernatant were removed, diluted 1:1 into distilled water containing internal standard, and analyzed by LCMS/MS. Percent remaining at each timepoint was calculated based on the peak area response ratio of test to compound to internal standard. Time 0 was set to 100%, and all later timepoints were calculated relative to time 0. Half-lives were calculated by fitting to a first-order exponential decay equation using Graphpad.

[7] = 20% cynomolgus monkey fecal homogenate, 37° C., 20 μM
IL-23R [8] = molecular target: T2, IL-23R (human, UniProt Q5VWK5 24-629); assay: cell-based or functional assay
T2 sequence (looked up): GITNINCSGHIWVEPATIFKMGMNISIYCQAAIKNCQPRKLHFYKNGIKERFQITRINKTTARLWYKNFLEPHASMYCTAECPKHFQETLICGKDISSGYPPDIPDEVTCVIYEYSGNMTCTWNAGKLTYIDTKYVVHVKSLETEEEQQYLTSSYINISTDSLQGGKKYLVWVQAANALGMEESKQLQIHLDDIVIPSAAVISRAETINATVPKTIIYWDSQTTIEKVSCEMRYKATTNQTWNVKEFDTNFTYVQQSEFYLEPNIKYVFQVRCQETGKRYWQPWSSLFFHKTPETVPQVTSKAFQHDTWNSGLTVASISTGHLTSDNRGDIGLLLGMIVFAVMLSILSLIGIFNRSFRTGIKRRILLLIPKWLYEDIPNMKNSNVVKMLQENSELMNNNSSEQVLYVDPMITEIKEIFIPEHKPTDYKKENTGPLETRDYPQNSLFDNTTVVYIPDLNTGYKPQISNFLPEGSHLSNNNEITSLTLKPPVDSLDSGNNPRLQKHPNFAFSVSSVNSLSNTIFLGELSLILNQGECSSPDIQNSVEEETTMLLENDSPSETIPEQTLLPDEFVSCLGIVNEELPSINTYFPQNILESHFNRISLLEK

[9] = Table E3, DB cells, IL-23 0.5 nM, 30 minutes at 37° C., read-out: pStat3 HTRF (IC50)

Molecule	half-life at 20 μM [2] [h]	half-life at 20 μM (in vitro [3]) [h]	half-life at 20 μM (in vitro [4]) [h]	IC50 (IL-23R [1]) [nM]	SIF t½ (in vitro [6]) [h]	also measured
CC(=O)NCCCC[C@H](NC(=O)[C@](C)(CC(C)C)NC(=O)[C@H](Cc1ccc2ccccc2c1)NC(=O)[C@H](Cc1ccc(OCCN)cc1)NC(=O)[C@H]1NC(=O)[C@H](CCC(N)=O)NC(=O)[C@H](Cc2c[nH]c3c(C)cccc23)NC(=O)[C@H]([C@@H](C)O)NC(=O)[C@H](CC(N)=O)NC(=O)[C@@H](NC(C)=O)C(C)(C)SSC1(C)C)C(=O)N[C@@H](CC(N)=O)C(=O)NCCC(N)=O [compound 201]	14	> 24	19	–	–	IC50 (IL-23R [1]; [9]): < 1 nM; IC50 (NK cells): < 10 nM; half-life at 20 μM (in vitro [5]): < 0.3 h
CC(=O)NCCCC[C@H](NC(=O)[C@](C)(CC(C)C)NC(=O)[C@H](Cc1ccc2ccccc2c1)NC(=O)[C@H](Cc1ccc(OCCN)cc1)NC(=O)[C@H]1NC(=O)[C@H](CCC(N)=O)NC(=O)[C@H](Cc2c[nH]c3c(C)cccc23)NC(=O)[C@H]([C@@H](C)O)NC(=O)[C@H](CC(N)=O)NC(=O)[C@@H](NC(C)=O)C(C)(C)SSC1(C)C)C(=O)N[C@@H](CO)C(=O)NCCC(N)=O [compound 221]	9	> 24	> 24	–	–	IC50 (IL-23R [1]; [9]): 1 to 10 nM; IC50 (NK cells): < 10 nM; half-life at 20 μM (in vitro [5]): 2 h
CC(=O)NCCCC[C@H](NC(=O)[C@](C)(CC(C)C)NC(=O)[C@H](Cc1ccc2ccccc2c1)NC(=O)[C@H](Cc1ccc(OCCN)cc1)NC(=O)[C@H]1NC(=O)[C@H](CCC(N)=O)NC(=O)[C@H](Cc2c[nH]c3c(C)cccc23)NC(=O)[C@H]([C@@H](C)O)NC(=O)[C@H](CC(N)=O)NC(=O)[C@@H](NC(C)=O)C(C)(C)SSC1(C)C)C(=O)N[C@@H](CC(N)=O)C(=O)N[C@@H](CC(N)=O)C(N)=O [compound 6]	12	17	4	< 1	24	IC50 (NK cells): < 10 nM; half-life at 20 μM (in vitro [5]): < 1 h
CC(=O)N[C@H]1CCSC[C@@H](C(=O)N[C@@H](Cc2ccc(OCCN)cc2)C(=O)N[C@@H](Cc2ccc3ccccc3c2)C(=O)NC2(C(=O)N[C@@H](CCC(=O)O)C(=O)N[C@@H](CC(N)=O)C(=O)N[C@@H](CC(N)=O)C(N)=O)CCOCC2)NC(=O)[C@H](CCC(N)=O)NC(=O)[C@H](Cc2c[nH]c3c(C)cccc23)NC(=O)[C@H]([C@@H](C)O)NC(=O)[C@H](CCC(N)=O)NC1=O [compound 28]	3	1	5	< 1	24	–
COc1cccc2[nH]cc(C[C@@H]3NC(=O)[C@H]([C@@H](C)O)NC(=O)[C@H](CC(N)=O)NC(=O)[C@@H](NC(C)=O)C(C)(C)SSC(C)(C)[C@@H](C(=O)N[C@@H](Cc4ccc(OCCN)cc4)C(=O)N[C@@H](Cc4ccc5ccccc5c4)C(=O)N[C@@](C)(CC(C)C)C(=O)N[C@@H](CCCCNC(C)=O)C(=O)N[C@@H](CC(N)=O)C(=O)N[C@@H](CC(N)=O)C(N)=O)NC(=O)[C@H](CCC(N)=O)NC3=O)c12 [compound 4]	9	6	2	1 to 10	24	–
CC(=O)NCCCC[C@H](NC(=O)[C@](C)(CCCCN)NC(=O)[C@H](Cc1ccc2ccccc2c1)NC(=O)[C@H](Cc1ccc(OCCN)cc1)NC(=O)[C@H]1NC(=O)[C@H](CCC(N)=O)NC(=O)[C@H](Cc2c[nH]c3c(C)cccc23)NC(=O)[C@H]([C@@H](C)O)NC(=O)[C@H](CC(N)=O)NC(=O)[C@@H](NC(C)=O)C(C)(C)SSC1(C)C)C(=O)N[C@@H](CC(N)=O)C(=O)NCCC(N)=O [compound 267]	–	–	–	–	–	IC50 (IL-23R [1]; [9]): < 1 nM; t½: Monkey Feces anaerobic [7]: 4 h
CC(=O)NCCCC[C@H](NC(=O)C1(NC(=O)[C@H](Cc2ccc3ccccc3c2)NC(=O)[C@H](Cc2ccc(OCCN)cc2)NC(=O)[C@@H]2CSCC[C@H](NC(=O)[C@@H](CCCNC(=N)N)NC(C)=O)C(=O)N[C@@H](CCC(N)=O)C(=O)N[C@@H]([C@@H](C)O)C(=O)N[C@@H](Cc3c[nH]c4c(C)cccc34)C(=O)N[C@@H](CCC(N)=O)C(=O)N2)CCOCC1)C(=O)N[C@@H](CC(N)=O)C(=O)N[C@@H](CC(N)=O)C(N)=O [compound 29]	1	–	–	< 1	–	half-life (in vitro [6]; simulated intestinal fluid (SIF) with pancreatin, read-out: SIF t½ (converted)): 21 h; half-life at 20 μM (in vitro [5]): 3 h
CC(=O)NCCCC[C@H](NC(=O)[C@](C)(CC(C)C)NC(=O)[C@H](Cc1ccc2ccccc2c1)NC(=O)[C@H](Cc1ccc(OCCN)cc1)NC(=O)[C@H]1NC(=O)[C@H](CCC(N)=O)NC(=O)[C@H](Cc2c[nH]c3c(F)cccc23)NC(=O)[C@H]([C@@H](C)O)NC(=O)[C@H](CC(N)=O)NC(=O)[C@@H](NC(C)=O)C(C)(C)SSC1(C)C)C(=O)N[C@@H](CC(N)=O)C(=O)N[C@@H](CC(N)=O)C(N)=O [compound 8]	15	–	–	10 to 100	24	–
CC(=O)NCCCC[C@H](NC(=O)[C@](C)(CC(C)C)NC(=O)[C@H](Cc1ccc2ccccc2c1)NC(=O)[C@H](Cc1ccc(OCCN)cc1)NC(=O)[C@H]1NC(=O)[C@H](CCC(N)=O)NC(=O)[C@H](Cc2c[nH]c3cc(C)ccc23)NC(=O)[C@H]([C@@H](C)O)NC(=O)[C@H](CC(N)=O)NC(=O)[C@@H](NC(C)=O)C(C)(C)SSC1(C)C)C(=O)N[C@@H](CC(N)=O)C(=O)N[C@@H](CC(N)=O)C(N)=O [compound 5]	12	6	2	1 to 10	24	–
CC(=O)NCCCC[C@H](NC(=O)C1(NC(=O)[C@H](Cc2ccc3ccccc3c2)NC(=O)[C@H](Cc2ccc(OCCN)cc2)NC(=O)[C@H]2NC(=O)[C@H](CCC(N)=O)NC(=O)[C@H](Cc3c[nH]c4c(C)cccc34)NC(=O)[C@H]([C@@H](C)O)NC(=O)[C@H](CC(N)=O)NC(=O)[C@@H](NC(C)=O)C(C)(C)SSC2(C)C)CCNCC1)C(=O)N[C@@H](CC(N)=O)C(=O)NCCC(N)=O [compound 275]	–	–	–	–	–	t½: Monkey Feces anaerobic [7]: 8 h
CC(=O)NCCCC[C@H](NC(=O)[C@](C)(CC(C)C)NC(=O)[C@H](Cc1ccc2ccccc2c1)NC(=O)[C@H](Cc1ccc(OCCN)cc1)NC(=O)[C@H]1NC(=O)[C@H](CCC(N)=O)NC(=O)[C@H](Cc2c[nH]c3cc(Cl)ccc23)NC(=O)[C@H]([C@@H](C)O)NC(=O)[C@H](CC(N)=O)NC(=O)[C@@H](NC(C)=O)C(C)(C)SSC1(C)C)C(=O)N[C@@H](CC(N)=O)C(=O)N[C@@H](CC(N)=O)C(N)=O [compound 2]	13	–	–	10 to 100	24	–
B1	–	–	–	–	–	pStat3 HTRF (nM) IC50 (IL-23R [8]): > 100 nM
B2	–	–	–	–	–	pStat3 HTRF (nM) IC50 (IL-23R [8]): > 100 nM
B3	–	–	–	–	–	pStat3 HTRF (nM) IC50 (IL-23R [8]): > 100 nM
